According to patent publication US11918650B2, “Pharmaceutical composition comprising bispecific antibody constructs for improved storage and administration” (AMGEN INC., priority 2017, dated 2024):

Experiments:
[1] = tested on: CD19×CD3 bispecific antibody construct; test: Preservative compatibility, percent HMW species by SEC-HPLC at pH 4; assay type: physicochemical; settings: CD19×CD3 bispecific antibody construct 0.8 mg/mL, 10 mM glutamate pH 4.0, 9% sucrose, 0.01% polysorbate 80; preservative conc. of Table 4; 25° C., 14 days
Description: In order to investigate the compatibility of known preservatives with a representative bispecific antibody construct according to the present invention, CD19×CD3 bispecific antibody construct was formulated in the presence of respective known preservatives with parameters as set out in Table 4.
The chosen preservative concentrations reflected standard concentrations employed in the art. The respective formulations were stored at 25° C. for 14 days and examined on day 0, 1, 3, 7 and 14 by size exclusion chromatography (SEC-HPLC).

[2] = tested on: CD19×CD3 bispecific antibody constructs; test: Denaturation assay (guanidinium chloride) with fluorescence detection; assay type: physicochemical; settings: 2.5 hours at 25° C., pH 7; excitation 280 nm, emission 300 to 400 nm
Description: FIG. 4: Denaturation diagram of CD19×CD3 bispecific antibody constructs at a concentration of 1 mg/ml in presence or absence of preservative benzyl alcohol as determined by fluorescence spectrometry […].
Improved stability of a representative bispecific antibody construct of the present invention conferred by a preservative such as benzyl alcohol was further examined by a denaturation assay using fluorescence as detection means. Experimental conditions comprised guanidinium chloride as denaturant which concentration was plotted on the x-axis (see FIG. 4). Incubation time was 2.5 hours at 25° C. at near-physiologic pH 7. Fluorescence excitation was set to 280 nm and the emission scan was run from 300 to 400 nm. The percentile denaturated fraction was calculated from the fluoresces assay as standard in the art. The result can be seen in FIG. 4. The grey curve represents the formulation comprising benzyl alcohol, the black curve the formulation without preservative. […] This means that it takes more denaturant to unfold this region, i.e. the CD3 domain, which translates into improved stability conferred by the preservative.

[3] = tested on: Escherichia coli (ATCC 8739); test: Microbial challenge study in IV bags; assay type: cell-based; settings: 20-25° C.
Description: (§1) This example was a microbial challenge study in support of CD19×CD3 bispecific antibody construct drug product (DP) administered via an intravenous (IV) bag. The study was performed to evaluate the ability of different concentrations (0.5%-0.74%) of benzyl alcohol (BeOH) to reduce or eliminate microbial growth in IV bags holding blinatumomab infusion solution containing benzyl alcohol, CD19×CD3 bispecific antibody construct DP, and intravenous solution stabilizer (IVSS) kept at 20-25° C. for up to 14 days.
(§2) The study was carried out to evaluate the growth of six different microorganisms in IV bags filled with 109 mL of CD19×CD3 bispecific antibody construct infusion solution containing benzyl alcohol (BeOH, at a final concentration of 0.0%, 0.5%, 0.6% or 0.74%), CD19×CD3 bispecific antibody construct DP, and IVSS. The prepared IV bags were held at 20-25° C. for up to 14 days.
(§3) The bacteria and yeast selected for the study are representative of known human pathogens commonly isolated from nosocomial infections. These microorganisms include Candida albicans (ATCC 10231), Enterobacter cloacae (ATCC 13047), Escherichia coli (ATCC 8739), Micrococcus luteus (ATCC 4698), Pseudomonas aeruginosa (ATCC 9027), and Staphylococcus aureus (ATCC 6538).
(§4) Test Articles: The test articles assessed in the study were blinatumomab infusion solution filled in IV bags containing 1.91 μg/mL conc. blinatumomab in a total volume of 109 mL/bag. The solution was made up by the addition of 2.2 mL IVSS, 16.8 mL of pooled reconstituted blinatumomab DP (210 μg), and a combined total volume of 90 mL of saline solution and saline solution with 0.9% benzyl alcohol (basaline). The four different levels of BeOH (0.0%, 0.5%, 0.6% and 0.74%) assessed in the study were achieved by adding different amounts of saline and basaline. For example, the bag with 0.0% BeOH (positive control) was prepared by adding 90 mL of saline, while the bag with 0.6% BeOH was prepared by adding 18 mL saline and 72 mL 0.9% bsaline, to the 2.2 mL IVSS and 16.8 mL blinatumomab DP. Refer to Appendix A for more details. Note that the illustration for 0.0% BeOH positive control in FIG. 1 (Schematic of IV Bag Preparation) of Appendix A of this report and in the same illustration in FIG. 4 of Appendix D inadvertently stated the final BeOH concentration to be 0.5%, instead of 0.0%. This is a typographic error and has no impact on the study outcome.
(§5) A total of 24 CD19×CD3 bispecific antibody construct infusion solution filled IV bags were assessed to evaluate the effect of four levels of benzyl alcohol on the aforementioned six different microorganisms (6×4=24). An approximate 1 mL of inoculum containing <1×10^4 CFU microbes was inoculated through the injection port into each bag that yielded an initial microbial load at ˜1×10^2 CFU/mL. After inoculation, the sampling port on the bag was cleaned with sterile IPA and the bag was mixed briefly and then incubated at 20-25° C.
(§6) Sampling and titration procedures: At each time point of 0-hour, 4-day, 8-day, 10-day, 12-day and 14 day, a 3 mL aliquot was collected from each assessed bag and titrated.
(§7) Sample titration was performed by membrane filtration in duplicate of 1 mL aliquots for each timed sample. Additional dilutions were performed to obtain countable results (<300 CFU/plate).

[4] = tested on: Candida albicans (ATCC 10231); test: Microbial challenge study in IV bags; assay type: cell-based; settings: all three levels of BeOH (0.5%, 0.6%, 0.74%) in blinatumomab infusion solution; 20-25° C.
Description: as §1, §2, §3, §4, §5, §6, §7

[5] = tested on: Staphylococcus aureus (ATCC 6538); test: Microbial challenge study in IV bags; assay type: cell-based; settings: 20-25° C.
Description: as §1, §2, §3, §4, §5, §6, §7

[6] = tested on: Micrococcus luteus (ATCC 4698); test: Microbial challenge study in IV bags; assay type: cell-based; settings: 20-25° C.
Description: as §1, §2, §3, §4, §5, §6, §7

[7] = tested on: Pseudomonas aeruginosa (ATCC 9027); test: Microbial challenge study in IV bags; assay type: cell-based; settings: 20-25° C.
Description: as §1, §2, §3, §4, §5, §6, §7

[8] = tested on: Enterobacter cloacae (ATCC 13047); test: Microbial challenge study in IV bags; assay type: cell-based; settings: 20-25° C.
Description: as §1, §2, §3, §4, §5, §6, §7

[9] = Frozen stability at −20° C. over 4 weeks, HMW species (FIG. 9, 10); assay type: physicochemical; settings: DLL3×CD3, pH 4
[10] = tested on: CDR-H3 region (YISYW) of anti-CD3 domain; test: Hydrogen-deuterium exchange (HDX) mass spectrometry, effects of citrate and benzyl alcohol; assay type: physicochemical; settings: addition to Tris-phosphate pH 6.0, 50 mM citrate, 0.9% benzyl alcohol
From the text: Hydrogen-deuterium exchange (HDX) is a chemical reaction in which a covalently bonded hydrogen atom is replaced by a deuterium atom, or vice versa. It can be applied most easily to exchangeable protons and deuterons, where such a transformation occurs in the presence of a suitable deuterium source, without any catalyst. The method gives information about the solvent accessibility of various parts of the molecule, and thus the tertiary structure of the protein.
Model anti-FAPα domain, isolated anti-CD3 domain (I2C, as typically used throughout all example bispecific antibody constructs), CD33×CD3 bispecific antibody construct and EGFRvIII×CD3 bispecific antibody construct were examined. For FAPα, anti-CD3 domain, and CD33×CD3 bispecific antibody construct, the experimental procedure was same. Firstly, the protein samples were dialyzed into Tris-phosphate buffer (35 mM Tris, 17.5 mM phosphate, pH 6.0) and (35 mM Tris, 17.5 mM phosphate, 50 mM citrate, pH 6.0), respectively. The protein concentration was adjusted to 0.3 mg/mL after dialysis. […] Thirdly, the HDX reaction was quenched after 10s, 1 min, 10 min, 1 hr, 4 hr, and 12 hr, and then the quenched protein samples were analyzed by mass spectrometry. […] Thirdly, the HDX reaction was quenched after 10s, 10 min, 2 hr, 8 hr, 16 hr, 24 hr, and then the quenched protein samples were analyzed by mass spectrometry. […]

[11] = 0.5%, 0.6% and 0.74% BeOH in blinatumomab infusion solution, inoculum 100 CFU/mL
[12] = all three assessed concentrations (0.5%, 0.6%, 0.74%), up to 14 days
[13] = 0.5% or 0.6% BeOH in blinatumomab infusion solution
[14] = 0.74% BeOH in blinatumomab infusion solution

SMILES: C[CH2][Hg][S]c1ccccc1C(=O)[O-].[Na+] [Thimerosal, thimerosal]
- percent high molecular weight (HMW) species over time [1]: slight increase in HWM over time

SMILES: OCc1ccccc1 [benzyl alcohol]
- denaturation curve (denaturated fraction vs guanidinium chloride) with benzyl alcohol versus without preservative [2]: shift to the right in the bottom portion of the curve
- day from which no E. coli was recoverable [3, 11]: 10 days
- growth of E. coli [3, 12]: completely inhibited
- day on which challenged C. albicans was unrecoverable [4]: 8 days
- day on which challenged S. aureus inoculum became unrecoverable [5, 13]: 8 days
- day on which challenged S. aureus inoculum became unrecoverable [5, 14]: 4 days
- day on which challenged M. luteus was unrecoverable [6, 13]: 14 days
- day on which challenged M. luteus was unrecoverable [6, 14]: 8 days
- day from which no P. aeruginosa was recoverable [7, 11]: 4 days
- growth of P. aeruginosa [7, 12]: completely inhibited
- day from which no E. cloacae was recoverable [8, 11]: 10 days
- growth of E. cloacae [8, 12]: completely inhibited
- benzyl alcohol concentration at which stabilizing effect on frozen stability is best [9]: above 0.1%
- conformational dynamics of the region of residues 366-370 (YISYW) versus formulation of Tris-phosphate [10]: increases the conformational dynamics of this region

SMILES: O=C(O)CC(O)(CC(=O)O)C(=O)O [citrate]
- conformational dynamics of the region of residues 366-370 (YISYW) versus formulation of Tris-phosphate [10]: reduces the conformational dynamics of this region

SMILES: COC(=O)c1ccc(O)cc1 [methylparabene, methylparaben]
- percent high molecular weight (HMW) species over time [1]: decrease in the percent high molecular weight (HMW) species over time

SMILES: Oc1ccccc1 [phenol]
- percent high molecular weight (HMW) species over time [1]: HMW values overall remain constant
